Test results published in ChEMBL document CHEMBL1201862, “PubChem BioAssay data set” (2004).
Values belong to the compound of their own block, whether it stands above or below them. Calls of active or inactive are those of the source.

Experiments:
[1] = molecular target: T1, Ubiquitin-conjugating enzyme E2 N (Homo sapiens, UniProt P61088); type: functional;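 note: Dose-response confirmation in a TR-FRET assay detecting UBC13-driven polyubiquitin chain formation, inhibition measured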
T1 sequence (P61088 whole entry): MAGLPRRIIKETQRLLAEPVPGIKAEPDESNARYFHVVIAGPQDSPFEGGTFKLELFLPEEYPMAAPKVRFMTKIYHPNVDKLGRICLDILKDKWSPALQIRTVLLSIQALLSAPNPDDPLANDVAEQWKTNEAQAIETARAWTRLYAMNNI

Cytochrome P450 2C19 = Cytochrome P450 2C19 (Homo sapiens, UniProt P33261); assay: Cytochrome panel assay with activity outcomes. Panel member name: p450-cyp2c19 Compounds with AC50 equal or less than 10 uM are considered active; type: functional
Sequence of Cytochrome P450 2C19 (P33261 whole entry): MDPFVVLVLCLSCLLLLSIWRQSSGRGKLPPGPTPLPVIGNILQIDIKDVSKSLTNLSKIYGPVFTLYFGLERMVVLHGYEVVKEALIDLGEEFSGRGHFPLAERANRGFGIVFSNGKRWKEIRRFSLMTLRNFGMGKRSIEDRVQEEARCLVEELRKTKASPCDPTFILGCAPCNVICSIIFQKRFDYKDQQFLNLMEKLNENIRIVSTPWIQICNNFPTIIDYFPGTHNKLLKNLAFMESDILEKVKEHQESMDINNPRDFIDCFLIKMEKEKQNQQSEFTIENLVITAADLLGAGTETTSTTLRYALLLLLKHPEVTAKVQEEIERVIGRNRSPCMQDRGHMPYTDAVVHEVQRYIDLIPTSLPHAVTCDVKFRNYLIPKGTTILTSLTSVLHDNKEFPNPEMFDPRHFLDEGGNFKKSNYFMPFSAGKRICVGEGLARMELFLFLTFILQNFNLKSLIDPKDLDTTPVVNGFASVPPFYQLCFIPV

Cytochrome P450 1A2 = molecular target: T2, Cytochrome P450 1A2 (Homo sapiens, UniProt P05177);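 note: PubChem cytochrome P450 panel assay, CYP1A2 panel member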
T2 sequence (P05177 whole entry): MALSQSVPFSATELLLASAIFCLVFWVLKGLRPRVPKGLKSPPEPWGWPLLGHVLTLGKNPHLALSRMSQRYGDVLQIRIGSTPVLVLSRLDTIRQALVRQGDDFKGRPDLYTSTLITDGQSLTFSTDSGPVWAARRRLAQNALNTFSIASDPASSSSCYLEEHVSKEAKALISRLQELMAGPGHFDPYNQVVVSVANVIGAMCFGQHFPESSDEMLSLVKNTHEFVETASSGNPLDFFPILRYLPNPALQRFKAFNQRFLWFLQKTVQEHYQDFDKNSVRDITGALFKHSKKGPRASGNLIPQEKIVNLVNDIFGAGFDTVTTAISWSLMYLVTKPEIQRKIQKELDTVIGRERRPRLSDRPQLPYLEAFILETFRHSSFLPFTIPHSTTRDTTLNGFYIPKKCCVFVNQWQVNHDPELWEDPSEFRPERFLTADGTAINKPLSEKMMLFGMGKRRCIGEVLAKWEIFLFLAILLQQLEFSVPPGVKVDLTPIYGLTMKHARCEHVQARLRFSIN

Cytochrome P450 2C9 = Cytochrome P450 2C9 (Homo sapiens, UniProt P11712)
Sequence of Cytochrome P450 2C9 (P11712 whole entry): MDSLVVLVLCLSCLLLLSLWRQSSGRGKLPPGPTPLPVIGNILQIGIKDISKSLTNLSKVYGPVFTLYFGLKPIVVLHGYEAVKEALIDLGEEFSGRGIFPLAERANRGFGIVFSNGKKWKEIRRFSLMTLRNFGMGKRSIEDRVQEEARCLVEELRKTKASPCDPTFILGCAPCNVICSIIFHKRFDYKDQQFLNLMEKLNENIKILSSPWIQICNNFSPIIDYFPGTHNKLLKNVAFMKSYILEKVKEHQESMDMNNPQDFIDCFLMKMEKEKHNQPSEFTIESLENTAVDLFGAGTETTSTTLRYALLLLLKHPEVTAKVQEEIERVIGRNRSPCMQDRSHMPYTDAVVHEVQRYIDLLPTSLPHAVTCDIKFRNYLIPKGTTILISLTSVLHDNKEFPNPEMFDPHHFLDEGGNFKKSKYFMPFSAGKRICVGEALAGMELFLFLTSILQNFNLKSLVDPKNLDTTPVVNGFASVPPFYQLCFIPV

Hexokinase-1 = Hexokinase-1 (Homo sapiens, UniProt P19367); assay: HK1 enzyme inhibition by HKDC1 hits, SAR follow-up, selectivity assay for HKDC1 inhibitor project, biochemical, set 2, resazurin fluorescence coupled readout (AID 588356); type: functional
Sequence of Hexokinase-1 (P19367 whole entry): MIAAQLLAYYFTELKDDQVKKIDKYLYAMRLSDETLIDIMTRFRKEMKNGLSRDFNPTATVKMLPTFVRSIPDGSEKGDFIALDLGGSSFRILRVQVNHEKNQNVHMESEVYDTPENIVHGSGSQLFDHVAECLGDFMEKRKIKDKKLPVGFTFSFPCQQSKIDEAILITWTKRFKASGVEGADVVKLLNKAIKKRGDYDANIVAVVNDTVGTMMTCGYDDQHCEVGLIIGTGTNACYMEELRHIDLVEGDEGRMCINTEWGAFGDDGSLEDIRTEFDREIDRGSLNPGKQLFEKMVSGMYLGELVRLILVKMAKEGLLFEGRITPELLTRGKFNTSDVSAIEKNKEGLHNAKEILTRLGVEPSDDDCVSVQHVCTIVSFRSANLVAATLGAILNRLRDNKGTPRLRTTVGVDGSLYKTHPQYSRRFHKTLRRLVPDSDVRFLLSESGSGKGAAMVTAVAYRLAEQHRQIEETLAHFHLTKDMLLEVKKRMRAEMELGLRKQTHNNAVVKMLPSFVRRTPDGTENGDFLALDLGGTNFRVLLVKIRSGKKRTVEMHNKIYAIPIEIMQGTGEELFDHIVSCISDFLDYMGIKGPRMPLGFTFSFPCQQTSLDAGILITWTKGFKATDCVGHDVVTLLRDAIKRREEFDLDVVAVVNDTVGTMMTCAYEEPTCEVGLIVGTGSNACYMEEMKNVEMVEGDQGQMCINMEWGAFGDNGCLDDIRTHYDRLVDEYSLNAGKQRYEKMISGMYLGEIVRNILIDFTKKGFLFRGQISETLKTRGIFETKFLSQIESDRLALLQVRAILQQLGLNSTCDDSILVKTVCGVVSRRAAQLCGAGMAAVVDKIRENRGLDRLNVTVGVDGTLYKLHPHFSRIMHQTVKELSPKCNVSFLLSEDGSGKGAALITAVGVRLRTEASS

Hexokinase HKDC1 = molecular target: T3, Hexokinase HKDC1 (Homo sapiens, UniProt Q2TB90); assay: HKDC1 hexokinase inhibitors, SAR follow-up, biochemical, set 2 (AID 588355); type: functional
T3 sequence (Q2TB90 whole entry): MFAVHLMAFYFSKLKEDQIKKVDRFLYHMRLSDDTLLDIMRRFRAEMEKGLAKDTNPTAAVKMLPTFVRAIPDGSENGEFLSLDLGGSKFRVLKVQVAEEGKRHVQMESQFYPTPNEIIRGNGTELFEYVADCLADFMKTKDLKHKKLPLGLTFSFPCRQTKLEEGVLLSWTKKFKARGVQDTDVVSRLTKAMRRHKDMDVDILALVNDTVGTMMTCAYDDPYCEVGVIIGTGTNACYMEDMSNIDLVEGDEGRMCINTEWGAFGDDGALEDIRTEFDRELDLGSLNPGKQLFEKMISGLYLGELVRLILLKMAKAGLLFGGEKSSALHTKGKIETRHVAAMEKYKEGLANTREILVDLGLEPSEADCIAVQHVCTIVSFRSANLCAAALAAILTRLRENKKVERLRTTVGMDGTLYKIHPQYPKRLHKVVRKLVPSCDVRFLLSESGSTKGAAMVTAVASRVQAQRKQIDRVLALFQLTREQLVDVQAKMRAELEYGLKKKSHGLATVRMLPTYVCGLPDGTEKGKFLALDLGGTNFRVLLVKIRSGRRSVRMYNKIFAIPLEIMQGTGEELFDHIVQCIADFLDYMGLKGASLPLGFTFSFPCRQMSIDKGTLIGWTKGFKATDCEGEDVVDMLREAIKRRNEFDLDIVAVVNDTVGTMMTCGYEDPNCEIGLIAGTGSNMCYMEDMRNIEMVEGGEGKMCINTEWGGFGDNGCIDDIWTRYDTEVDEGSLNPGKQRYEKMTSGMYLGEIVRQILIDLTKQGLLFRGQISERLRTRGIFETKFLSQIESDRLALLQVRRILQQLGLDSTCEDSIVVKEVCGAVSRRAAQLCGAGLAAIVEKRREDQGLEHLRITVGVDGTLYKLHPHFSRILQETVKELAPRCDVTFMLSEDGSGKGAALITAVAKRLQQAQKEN

[2] = molecular target: sn-1-specific diacylglycerol lipase ABHD11 (Mus musculus, UniProt Q8K4F5); assay: Late stage assay provider results from the probe development effort to identify inhibitors of LYPLA1: fluorescence-based cell-based gel-based Activity-Based Protein Profiling (ABPP) IC50 for anti-target ABHD11. [Related pubchem assays (depositor defined):AID2174, AID2177, AID2202, AID2203, AID2232, AID2233, AID493105, AID493108, AID493109, AID493110, AID493111, AID493154, AID493161, AID504892]; type: functional
Sequence of sn-1-specific diacylglycerol lipase ABHD11 (Q8K4F5 whole entry): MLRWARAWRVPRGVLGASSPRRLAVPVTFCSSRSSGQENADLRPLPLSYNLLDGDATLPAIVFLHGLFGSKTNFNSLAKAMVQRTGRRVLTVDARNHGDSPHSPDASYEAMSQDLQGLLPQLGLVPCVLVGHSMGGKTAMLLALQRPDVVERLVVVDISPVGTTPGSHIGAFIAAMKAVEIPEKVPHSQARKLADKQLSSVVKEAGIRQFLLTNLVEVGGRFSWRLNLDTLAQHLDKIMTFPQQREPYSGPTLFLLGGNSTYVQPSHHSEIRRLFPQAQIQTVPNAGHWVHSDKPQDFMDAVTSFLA

Candida albicans [3] = assay: growth inhibition of resistant C. albicans, dose response, CaCi-8 strain, fluconazole, dry powder, set 4 (AID 488950); type: functional, organism-based
Candida albicans [4] = assay: fluconazole resistance reversal in C. albicans, dose response, CaCi-2 strain, Alamar Blue, dry powder, set 4 (AID 488943); type: functional, organism-based
Candida albicans [5] = assay: growth inhibition of azole-resistant C. albicans, dose response, CaCi-8 strain, Alamar Blue, dry powder, set 3 (AID 488905); type: functional, organism-based
Candida albicans [6] = assay: reversal of fluconazole resistance in C. albicans, dose response, CaCi-2 strain, Alamar Blue, dry powder, set 3 (AID 488907); type: functional, organism-based
A-375 [7] = assay: MITF: Counter assay: A375 proliferation Measured in Cell-Based System Using Plate Reader - 2084-03_Inhibitor_Dose_DryPowder_Activity. [Related pubchem assays (depositor defined):AID488944]; type: functional; details: Homo sapiens
A-375 [8] = assay: A375 melanoma cell viability reduction, dose response, counter-screen for MITF modulator project, cherry-pick samples, set 2 (AID 540335); type: functional, cell-based; details: Homo sapiens
Escherichia coli = assay: microbe, parasite or virus in culture

SMILES: Cc1ccc(N2CCN(C(=O)c3ccc(Cl)cc3)CC2)nn1
AC50 (Candida albicans [3]): 4.41 µM (active) | AC50 (Candida albicans [4]): 1.64 µM (active) | AC50 (Candida albicans [5]): 103 µM (active) | AC50 (Candida albicans [6]): 8.19 µM (active)

SMILES: Cn1c(/C(C#N)=C/c2ccc(-c3ccc(S(N)(=O)=O)cc3)o2)nc2ccccc21
AC50 (A-375 [7]): > 11 µM (active) | AC50 (A-375 [8]): > 11 µM (active)

SMILES: Cc1nnc(SCc2ccccc2CSc2nnc(C)s2)s1
AC50 (Escherichia coli): 111 µM (active)

The remaining lines, values ahead:

IC50 [1]: > 20 µM (inactive) | AC50 (Cytochrome P450 2C19): inactive | AC50 (Cytochrome P450 1A2): inactive | AC50 (Cytochrome P450 2C9): inconclusive
SMILES: COc1cc(N)c(Cl)cc1C(=O)N[C@H]1CCN(CCCOc2ccc(F)cc2)C[C@H]1OC [REL-CISAPRIDE]

IC50 (Hexokinase-1): > 80 µM (inactive) | IC50 (Hexokinase HKDC1): > 80 µM (inactive)
SMILES: COc1ccc2c(c1)C(NC(C)=O)C(=O)N2Cc1ccccc1 (centres undefined)

IC50 [2]: 0.000137 µM (active)
SMILES: COCC1CCCCN1C(=O)n1ncc(C(O)(c2ccccc2)c2ccccc2)n1 (centres undefined)
